Reference: patent US20030129629A1, “Methods and compositions for the identification, assessment, prevention, and therapy of human cancers” (Millennium Pharmaceuticals, Inc., priority 2000, published 2003)
Read-outs that look alike come from different tables or passages of the source.

Tests used:
[1] = tested on: tumor; conditions: animal models; cited from earlier work
[2] = tested on: 60 cancer cell lines (NCI 60 cancer cell line series); conditions: cited from earlier work
[3] = tested on: 60 cancer cell lines (NCI 60 cancer cell line series); experiment: NCI-DTP in vitro cancer screen, sulforhodamine B (SRB) growth inhibition, 48 hour exposure; type: cell-based, human
Summary of the method: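 Potency is given as mean −log{GI50} from dose–response curves, manually binned into Low, Medium or High sensitivity. Sixty NCI-DTP tumour lines were treated 48 h with a duplicate, five-dose, ten-fold dilution series, and growth read by SRB staining of cell mass.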

CC(=O)O[C@@]12CO[C@@H]1C[C@H](O)[C@@]1(C)C(=O)[C@H](O)C3=C(C)[C@@H](OC(=O)[C@H](O)[C@@H](NC(=O)OC(C)(C)C)c4ccccc4)C[C@@](O)([C@@H](OC(=O)c4ccccc4)[C@H]21)C3(C)C [Taxotere, docetaxel]
anti-tumor activity [1]: good anti-tumor activity

Bleomycin
−Log (GI50) ([2]; CNS SF-539 CL12016): 7.7
−Log (GI50) ([2]; Melanoma LOX IMVI CL10001): 6.8
−Log (GI50) ([2]; Ovarian OVCAR-3 CL6001): 5.3
classification of cell line as Low(1), Medium(2), High(3) sensitivity to compound ([3]; Breast MCF7(I) CL5001): 2
classification of cell line as Low(1), Medium(2), High(3) sensitivity to compound ([3]; Breast MCF7/ADRr CL5002): 2
classification of cell line as Low(1), Medium(2), High(3) sensitivity to compound ([3]; Breast MDA-MB-231 CL5005): 1
classification of cell line as Low(1), Medium(2), High(3) sensitivity to compound ([3]; Breast MDA-MB-435 CL5011): 1
classification of cell line as Low(1), Medium(2), High(3) sensitivity to compound ([3]; Breast MDA-N CL5012): 1
classification of cell line as Low(1), Medium(2), High(3) sensitivity to compound ([3]; Breast T-47D CL5014): 2
classification of cell line as Low(1), Medium(2), High(3) sensitivity to compound ([3]; CNS SF-268 CL12014): 2
classification of cell line as Low(1), Medium(2), High(3) sensitivity to compound ([3]; CNS SF-295 CL12015): 3
classification of cell line as Low(1), Medium(2), High(3) sensitivity to compound ([3]; CNS SF-539 CL12016): 3
classification of cell line as Low(1), Medium(2), High(3) sensitivity to compound ([3]; CNS SNB-19 CL12002): 2
classification of cell line as Low(1), Medium(2), High(3) sensitivity to compound ([3]; CNS SNB-75(I) CL12005): 2
classification of cell line as Low(1), Medium(2), High(3) sensitivity to compound ([3]; CNS U251(I) CL12009): 2
classification of cell line as Low(1), Medium(2), High(3) sensitivity to compound ([3]; Colon COLO-250 CL4010): 2
classification of cell line as Low(1), Medium(2), High(3) sensitivity to compound ([3]; Colon HCT-15 CL4015): 2
classification of cell line as Low(1), Medium(2), High(3) sensitivity to compound ([3]; Colon HCT-116 CL4003): 2
classification of cell line as Low(1), Medium(2), High(3) sensitivity to compound ([3]; Colon HT29(I) CL4001): 1
classification of cell line as Low(1), Medium(2), High(3) sensitivity to compound ([3]; Colon KM12 CL4017): 1
classification of cell line as Low(1), Medium(2), High(3) sensitivity to compound ([3]; Colon SW-620 CL4009): 2
classification of cell line as Low(1), Medium(2), High(3) sensitivity to compound ([3]; Leukemia CCRF-CEM(I) CL7003): 2
classification of cell line as Low(1), Medium(2), High(3) sensitivity to compound ([3]; Leukemia HL-60(I) CL7008): 2
classification of cell line as Low(1), Medium(2), High(3) sensitivity to compound ([3]; Leukemia K562(I) CL7005): 2
classification of cell line as Low(1), Medium(2), High(3) sensitivity to compound ([3]; Leukemia MOLT-4 CL7006): 2
classification of cell line as Low(1), Medium(2), High(3) sensitivity to compound ([3]; Leukemia SR CL7019): 3
classification of cell line as Low(1), Medium(2), High(3) sensitivity to compound ([3]; Melanoma LOX IMVI CL10001): 3
classification of cell line as Low(1), Medium(2), High(3) sensitivity to compound ([3]; Melanoma M14 CL10014): 2
classification of cell line as Low(1), Medium(2), High(3) sensitivity to compound ([3]; Melanoma MALME-3M CL10002): 2
classification of cell line as Low(1), Medium(2), High(3) sensitivity to compound ([3]; Melanoma SK-MEL-2 CL10005): 1
classification of cell line as Low(1), Medium(2), High(3) sensitivity to compound ([3]; Melanoma SK-MEL-28 CL10008): 1
sensitivity classification Low(1)/Medium(2)/High(3) ([3]; NSCLC NCI-H23(I) CL1001): 2
sensitivity classification Low(1)/Medium(2)/High(3) ([3]; NSCLC NCI-H332M CL1017): 1
sensitivity classification Low(1)/Medium(2)/High(3) ([3]; NSCLC NCI-H522 CL1003): 2
sensitivity classification Low(1)/Medium(2)/High(3) ([3]; Ovarian IGROV1 CL6010): 2
sensitivity classification Low(1)/Medium(2)/High(3) ([3]; Ovarian OVCAR-3 CL6001): 2
sensitivity classification Low(1)/Medium(2)/High(3) ([3]; Ovarian OVCAR-4 CL6002): 2
sensitivity classification Low(1)/Medium(2)/High(3) ([3]; Ovarian OVCAR-5 CL6003): 2
sensitivity classification Low(1)/Medium(2)/High(3) ([3]; Ovarian OVCAR-8 CL6005): 2
sensitivity classification Low(1)/Medium(2)/High(3) ([3]; Ovarian SK-OV-3 CL6011): 2
sensitivity classification Low(1)/Medium(2)/High(3) ([3]; Prostate DU-145 CL11003): 2
sensitivity classification Low(1)/Medium(2)/High(3) ([3]; Prostate PC-3(I) CL11001): 2
sensitivity classification Low(1)/Medium(2)/High(3) ([3]; Renal 786-0 CL9018): 2
sensitivity classification Low(1)/Medium(2)/High(3) ([3]; Renal A498 CL9013): 2
sensitivity classification Low(1)/Medium(2)/High(3) ([3]; Renal ACHN CL9023): 3
sensitivity classification Low(1)/Medium(2)/High(3) ([3]; Renal SN12C CL9008): 2
sensitivity classification Low(1)/Medium(2)/High(3) ([3]; Renal TK10 CL9024): 1
